# Laboratory results reported in EP0180416A2, “Benzoic acid analogues and their production” (Takeda Chemical Industries, Ltd., priority 1984, dated 1986).
# Structures can show the parent of a compound that is named as a salt.
# Experiments:
# [1] = test system: synthetic leukotriene D4 (LTD4); assay: Bronchoconstriction due to LTD4 in guinea pigs (Konzett-Rossler method); format: in vivo, Guinea pigs of Hartley strain; conditions: Cavia porcellus, 1 h; 50% inhibitory dose; oral, one hour before LTD4 (10 ug/kg i.v.); inhibition of overflow volume at maximal response; anesthetized guinea pigs; read-out: ID50(p.o.)
# Experimental: Guinea pigs of Hartley strain, both male and female, with body weights about 400 g were assigned to groups of 6 to 10 individuals, and the bronchoconstriction due to LTD4 was measured according to the method of Konzett-Rossler [Konzett, H. and ROssler, R.: Naunyn-Schmiedebergs Archiv far Experimentelle Pathologie und Pharmakologie 195, 71-74 (1940)]. Each guinea pig was fixed in a supine position under urethane anesthesia (1.5 g/kg, intraperitoneal) and the trachea was incised and connected to an artificial respiration apparatus, Rodent Respirator Model 680 [Harvard Apparatus Company, U.S.A.] via a cannula. The branch tube of this tracheal cannula was connected to a Bronchospasm Transducer Model 7020 [Ugobasil Biological Researach Apparatus, Italy]. Under the conditions of 4 to 7 ml of air per stroke, 70 strokes per minute and a lung loading pressure of 10 cm H2O, the volume of overflowing air was recorded on a Rectigraph-8S (Sanei Sokki Ltd., Japan) via a transducer. After administration of gallamine·triethiodide (1 mg/kg, i.v.), a solution of LTD4 in physiological saline (10 ug/kg) was intravenously administered and the bronchoconstriction elicited thereby was recorded for 15 minutes. The compound was used as suspended in a 5% solution of gum arabic or dissolved in water, and administered orally in a volume of 0.2 ml per 100 g body weight one hour before LTD4 loading. LTD4 was administered through a cannula inserted into the jugular vein. LTD4 was used as dissolved in physiological saline, which was taken from a stock stored in methanol (1 mg/l mℓ methanol) at -70°C.
# mice = assay: Acute toxicity in mice; format: in vivo, mice of Jcl:ICR strain; conditions: 2000 mg/kg, male mice; for symptoms after oral administration (acute toxicity): suspended in 5% gum arabic; for autopsy findings: oral, autopsy after 7 days
# Experimental: Five 5-week-old male mice of Jcl:ICR strain, weighing about 30 g each, were used. Compound (I)-2 or (I)-4 was suspended in a 5% solution of gum arabic and administered orally at the level of 0.2 ml per 10 grams body weight.
Structure (SMILES),ED50 [1] [µmol/kg],symptoms after oral administration (acute toxicity) (mice),autopsy findings (mice)
"CCCc1c(OCCCOc2ccc(C(=O)OCCN(C)C)cc2Br)ccc(C(C)=O)c1O [(I)-1, 2-(N,N-dimethylamino)ethyl 4-[3-(4-acetyl-3-hydroxy-2-propylphenoxy)propoxy]-3-bromobenzoate·hydrochloride·monohydrate]",49,–,–
"CCCc1c(OCCCOc2ccc(C(=O)OCCN3CCOCC3)cc2Br)ccc(C(C)=O)c1O [(I)-2, 2-morpholinoethyl 4-[3-(4-acetyl-3-hydroxy-2-propylphenoxy)propoxy]-3-bromobenzoate]",41,no symptoms,did not reveal any abnormalities
"CCCc1c(OCCCOc2ccc(C(=O)OCCN3CCN(C)CC3)cc2Br)ccc(C(C)=O)c1O [(I)-3, 2-(4-methyl-l-piperazinyl)ethyl 4-[3-(4-acetyl-3-hydroxy-2-propylphenoxy)propoxy]-3-bromobenzoate· dihydrochloride·monohydrate]",49,–,–
"CCCc1c(OCCCOc2ccc(C(=O)OCCCN(C)C)cc2Br)ccc(C(C)=O)c1O [(I)-4, 3-(N,N-dimethylamino)propyl 4-[3-(4-acetyl-3-hydroxy-2-propylphenoxy)propoxy]-3-bromobenzoate]",52,no symptoms,did not reveal any abnormalities
"CCCc1c(OCCCOc2ccc(C(=O)O)cc2Br)ccc(C(C)=O)c1O [Control compound (A), 4-[3-(4-acetyl-3-hydroxy-2-propylphenoxy)propoxy]-3-bromobenzoic acid, reference compound]",146,–,–
